Measured values from patent US8048927B2 (Besins Healthcare Luxembourg, priority 2004, dated 2011).

Assay: pharmacokinetics of 4-hydroxy tamoxifen gel in healthy premenopausal women (Example 3)
Format: in vivo, human
Details: for Plasma concentration of 4-hydroxy tamoxifen, Mean ± SD / T(1stC < LOQ), first timepoint at which the plasma concentration was below the limit of quantification, Mean ± SD / Plasma concentration of 4-hydroxy tamoxifen, Range / AUC0-24, Mean ± SD / Cav = AUC0-24/24, Mean ± SD / Cmax, Mean ± SD / t1/2, Range / tmax, Mean ± SD: gel 57 mg/100 g; for T(1stC < LOQ), first timepoint at which the plasma concentration was below the limit of quantification, Mean ± SD: after last administration; for AUC0-24, Mean ± SD / Cav = AUC0-24/24, Mean ± SD / Cmax, Mean ± SD / t1/2, Range / tmax, Mean ± SD: last administration, day 25 of second cycle
Experimental: Each participant applied the gel daily for the duration of two menstrual cycles.
At the end of a menstrual cycle, each patient received a single dose, after which serial blood samples were collected at 0, 0.5, 1, 1.5, 2, 3, 4, 6, 12, 18, 24, 36, 48, and 72 hours.
On the first day of the following menstruation, treatment, which consisted of daily application of the gel over two menstrual cycles, began. Blood samples were collected 24 hours following the morning application of gel on days 7, 20 and 25 of the first and second cycles. On the last day of administration, day 25 of the second menstrual cycle, serial blood samples were collected prior to application and at 0.5, 1, 1.5, 2, 3, 4, 6, 12, 18, 24, 36, 48, and 72 hours after application of the gel.

CCC(=C(c1ccc(O)cc1)c1ccc(OCCN(C)C)cc1)c1ccccc1 [4-hydroxy tamoxifen, 1-[4-(2-N-dimethylaminoethoxy)phenyl]-1-(4-hydroxyphenyl)-2-phenylbut-1-ene]
Plasma concentration of 4-hydroxy tamoxifen, Mean ± SD (1 mg/day, First cycle Day 25, 24 hr after application): 0.0198 ± 0.0162 ng/mL | Plasma concentration of 4-hydroxy tamoxifen, Mean ± SD (1 mg/day, Second cycle Day 7, 24 hr after application): 0.0222 ± 0.0164 ng/mL | Plasma concentration of 4-hydroxy tamoxifen, Mean ± SD (1 mg/day, Second cycle Day 20, 24 hr after application): 0.0244 ± 0.0201 ng/mL | Plasma concentration of 4-hydroxy tamoxifen, Mean ± SD (1 mg/day, Second cycle Day 25, 0 hr (24 hours after Day 24 application, prior to final application)): 0.0272 ± 0.0208 ng/mL | Plasma concentration of 4-hydroxy tamoxifen, Mean ± SD (1 mg/day, Second cycle Day 25, 0.5 hr after application): 0.0259 ± 0.0187 ng/mL | Plasma concentration of 4-hydroxy tamoxifen, Mean ± SD (1 mg/day, Second cycle Day 25, 1 hr after application): 0.0287 ± 0.0195 ng/mL | Plasma concentration of 4-hydroxy tamoxifen, Mean ± SD (1 mg/day, Second cycle Day 25, 1.5 hr after application): 0.0256 ± 0.0178 ng/mL | Plasma concentration of 4-hydroxy tamoxifen, Mean ± SD (1 mg/day, Second cycle Day 25, 2 hr after application): 0.0251 ± 0.018 ng/mL | Plasma concentration of 4-hydroxy tamoxifen, Mean ± SD (1 mg/day, Second cycle Day 25, 3 hr after application): 0.0248 ± 0.0205 ng/mL | Plasma concentration of 4-hydroxy tamoxifen, Mean ± SD (1 mg/day, Second cycle Day 25, 4 hr after application): 0.0268 ± 0.0233 ng/mL | Plasma concentration of 4-hydroxy tamoxifen, Mean ± SD (1 mg/day, Second cycle Day 25, 6 hr after application): 0.025 ± 0.0182 ng/mL | Plasma concentration of 4-hydroxy tamoxifen, Mean ± SD (1 mg/day, Second cycle Day 25, 12 hr after application): 0.0283 ± 0.0229 ng/mL | Plasma concentration of 4-hydroxy tamoxifen, Mean ± SD (1 mg/day, Second cycle Day 25, 18 hr after application): 0.0234 ± 0.0174 ng/mL | Plasma concentration of 4-hydroxy tamoxifen, Mean ± SD (1 mg/day, Second cycle Day 26, 24 hr after last application): 0.026 ± 0.0196 ng/mL | Plasma concentration of 4-hydroxy tamoxifen, Mean ± SD (1 mg/day, Second cycle Day 26, 36 hr after last application): 0.0257 ± 0.0184 ng/mL | Plasma concentration of 4-hydroxy tamoxifen, Mean ± SD (1 mg/day, Second cycle Day 27, 48 hr after last application): 0.022 ± 0.016 ng/mL | Plasma concentration of 4-hydroxy tamoxifen, Mean ± SD (1 mg/day, Second cycle Day 28, 72 hr after last application): 0.0189 ± 0.0124 ng/mL | T(1stC < LOQ), first timepoint at which the plasma concentration was below the limit of quantification, Mean ± SD (1 mg/day): 236 ± 72 h | Plasma concentration of 4-hydroxy tamoxifen, Mean ± SD (1 mg/day, after the second cycle, +5 days): 0.0114 ± 0.0082 ng/mL | Plasma concentration of 4-hydroxy tamoxifen, Range (1 mg/day, after the second cycle, +8 days): (0-14.8) pg/mL | AUC0-24, Mean ± SD (1 mg/day): 0.619 ± 0.466 ng·h/mL | Cav = AUC0-24/24, Mean ± SD (1 mg/day): 0.0258 ± 0.0194 ng/mL | Cmax, Mean ± SD (1 mg/day): 0.0351 ± 0.0224 ng/mL | t1/2, Range (1 mg/day): (58-118) hr | tmax, Mean ± SD (1 mg/day): 12.8 ± 14.9 h | Plasma concentration of 4-hydroxy tamoxifen, Range (2 mg/day, First cycle Day 1, 0 hr): (0-0) pg/mL | Plasma concentration of 4-hydroxy tamoxifen, Mean ± SD (2 mg/day, First cycle Day 7, 24 hr after application): 0.0269 ± 0.0182 ng/mL | Plasma concentration of 4-hydroxy tamoxifen, Mean ± SD (2 mg/day, First cycle Day 20, 24 hr after application): 0.044 ± 0.0292 ng/mL | Plasma concentration of 4-hydroxy tamoxifen, Mean ± SD (2 mg/day, First cycle Day 25, 24 hr after application): 0.0454 ± 0.031 ng/mL | Plasma concentration of 4-hydroxy tamoxifen, Mean ± SD (2 mg/day, Second cycle Day 7, 24 hr after application): 0.0422 ± 0.0248 ng/mL | Plasma concentration of 4-hydroxy tamoxifen, Mean ± SD (2 mg/day, Second cycle Day 20, 24 hr after application): 0.0389 ± 0.0271 ng/mL | Plasma concentration of 4-hydroxy tamoxifen, Mean ± SD (2 mg/day, Second cycle Day 25, 0 hr (24 hours after Day 24 application, prior to final application)): 0.0432 ± 0.0277 ng/mL | Plasma concentration of 4-hydroxy tamoxifen, Mean ± SD (2 mg/day, Second cycle Day 25, 0.5 hr after application): 0.0445 ± 0.0299 ng/mL | Plasma concentration of 4-hydroxy tamoxifen, Mean ± SD (2 mg/day, Second cycle Day 25, 1 hr after application): 0.0405 ± 0.0251 ng/mL | Plasma concentration of 4-hydroxy tamoxifen, Mean ± SD (2 mg/day, Second cycle Day 25, 1.5 hr after application): 0.0368 ± 0.0211 ng/mL | Plasma concentration of 4-hydroxy tamoxifen, Mean ± SD (2 mg/day, Second cycle Day 25, 2 hr after application): 0.0368 ± 0.0216 ng/mL | Plasma concentration of 4-hydroxy tamoxifen, Mean ± SD (2 mg/day, Second cycle Day 25, 3 hr after application): 0.0361 ± 0.0206 ng/mL | Plasma concentration of 4-hydroxy tamoxifen, Mean ± SD (2 mg/day, Second cycle Day 25, 4 hr after application): 0.0381 ± 0.0212 ng/mL | Plasma concentration of 4-hydroxy tamoxifen, Mean ± SD (2 mg/day, Second cycle Day 25, 6 hr after application): 0.041 ± 0.0291 ng/mL | Plasma concentration of 4-hydroxy tamoxifen, Mean ± SD (2 mg/day, Second cycle Day 25, 12 hr after application): 0.0451 ± 0.0306 ng/mL | Plasma concentration of 4-hydroxy tamoxifen, Mean ± SD (2 mg/day, Second cycle Day 25, 18 hr after application): 0.0398 ± 0.0255 ng/mL | Plasma concentration of 4-hydroxy tamoxifen, Mean ± SD (2 mg/day, Second cycle Day 26, 24 hr after last application): 0.044 ± 0.033 ng/mL | Plasma concentration of 4-hydroxy tamoxifen, Mean ± SD (2 mg/day, Second cycle Day 26, 36 hr after last application): 0.0421 ± 0.0315 ng/mL | Plasma concentration of 4-hydroxy tamoxifen, Mean ± SD (2 mg/day, Second cycle Day 27, 48 hr after last application): 0.0381 ± 0.0253 ng/mL | Plasma concentration of 4-hydroxy tamoxifen, Mean ± SD (2 mg/day, Second cycle Day 28, 72 hr after last application): 0.0332 ± 0.0222 ng/mL | T(1stC < LOQ), first timepoint at which the plasma concentration was below the limit of quantification, Mean ± SD (2 mg/day): 326 ± 97 h | Plasma concentration of 4-hydroxy tamoxifen, Mean ± SD (2 mg/day, after the second cycle, +5 days): 0.0204 ± 0.0173 ng/mL | Plasma concentration of 4-hydroxy tamoxifen, Mean ± SD (2 mg/day, after the second cycle, +8 days): 0.0108 ± 0.0134 ng/mL | Plasma concentration of 4-hydroxy tamoxifen, Range (2 mg/day, after the second cycle, +12 days): (0-30.4) pg/mL | AUC0-24, Mean ± SD (2 mg/day): 0.998 ± 0.653 ng·h/mL | Cav = AUC0-24/24, Mean ± SD (2 mg/day): 0.0416 ± 0.0272 ng/mL | Cmax, Mean ± SD (2 mg/day): 0.0516 ± 0.0317 ng/mL | t1/2, Range (2 mg/day): (49-101) hr | tmax, Mean ± SD (2 mg/day): 11.8 ± 12.3 h | plasma concentrations after the last gel application (72 hours after the last gel application): remained detectable | plasma concentrations of 4-hydroxy tamoxifen after a single dose (single 0.5 mg dose): did not produce detectable plasma concentrations | patients with detectable plasma concentrations (>5 pg/mL) (single dose of 1 mg): 6 of 12 | plasma concentrations of 4-hydroxy tamoxifen compared with typical estradiol concentrations (topical application, 0.5-2 mg/day): < 0.08 ng/mL
